Measurements from the supplement of paper PMC11061612.

What was measured:
Test in all cases: Bliss excess, mean over the matrix (fraction); higher = more synergy
[1] = system: GR-ST (B-Lymphoblastic Leukemia)
Procedure, shortened: (§1)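 Cell lines grown in DMEM/F12 or RPMI with 10% FBS were plated in 1536-well plates and held 24 hours at 37°C, 5% CO2 before 72 hours of exposure to two-drug dose matrices, with DMSO typically at 0.2%. CellTiter-Glo 2.0 luminescence gave viability, which was converted to inhibition. Vehicle wells were set to 0 and blank wells to 1. Combination Emax is the second-highest inhibition in the matrix, and Bliss excess is the observed combination effect minus the expected EA + EB − EA·EB, where EA and EB are the single-agent effects.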

[2] = system: NCI-H847 (Small Cell Lung Carcinoma)
Procedure, shortened: as §1

[3] = system: KCL-22 (Chronic Myelogenous Leukemia)
Procedure, shortened: as §1

[4] = system: EVSA-T (Breast Carcinoma)
Procedure, shortened: as §1

[5] = system: TE-6 (Esophageal Squamous Cell Carcinoma)
Procedure, shortened: as §1

[6] = system: SR (Other Blood Carcinomas)
Procedure, shortened: as §1

WM-115 (Melanoma) = system: WM-115 (Melanoma)
Procedure, shortened: as §1

TC-71 (Ewing's Sarcoma) = system: TC-71 (Ewing's Sarcoma)
Procedure, shortened: as §1

[7] = system: MOLT-16 (T-Lymphoblastic Leukemia)
Procedure, shortened: as §1

[8] = system: MKN28 (Gastric Carcinoma)
Procedure, shortened: as §1

[9] = system: K-562 (Chronic Myelogenous Leukemia)
Procedure, shortened: as §1

ES8 (Ewing's Sarcoma) = system: ES8 (Ewing's Sarcoma)
Procedure, shortened: as §1

[10] = system: MFM-223 (Breast Carcinoma)
Procedure, shortened: as §1

[11] = system: HL-60 (Acute Myeloid Leukemia)
Procedure, shortened: as §1

[12] = system: DiFi (Colorectal Carcinoma)
Procedure, shortened: as §1

[13] = system: NCI-H1792 (Lung Adenocarcinoma)
Procedure, shortened: as §1

[14] = system: PANC-08-13 (Pancreatic Carcinoma)
Procedure, shortened: as §1

LN-18 (Glioblastoma) = system: LN-18 (Glioblastoma)
Procedure, shortened: as §1

[15] = system: KYSE-180 (Esophageal Squamous Cell Carcinoma)
Procedure, shortened: as §1

SMILES | Bliss excess [1] | Bliss excess [2] | Bliss excess [3] | Bliss excess [4] | Bliss excess [5] | Bliss excess [6] | Bliss excess (WM-115 (Melanoma)) | Bliss excess (TC-71 (Ewing's Sarcoma)) | Bliss excess [7] | Bliss excess [8] | Bliss excess [9] | Bliss excess (ES8 (Ewing's Sarcoma)) | Bliss excess [10] | Bliss excess [11] | Bliss excess [12] | Bliss excess [13] | Bliss excess [14] | Bliss excess (LN-18 (Glioblastoma)) | Bliss excess [15]
CN(C)CCCOc1ccc(-c2ccc3ncc4c(c3c2)n(C2CCOCC2)c(=O)n4C)cn1 [AZD0156] + C[C@@H]1COCCN1C2=NC(=NC(=C2)C3(CC3)[S@](=N)(=O)C)C4=C5C=CNC5=NC=C4 [AZD6738] (first compound max 1 µM, 7x7, partner max 10 µM) | -0.0006 | -0.0116 | 0.0274 | 0.0081 | 0.0225 | 0.015 | -0.0565 | 0.069 | -0.0399 | -0.0092 | -0.0079 | 0.0169 | 0.0432 | -0.0159 | 0.0174 | 0.0254 | -0.0376 | 0.0505 | 0.0762
C=CCn1c(=O)c2cnc(Nc3ccc(N4CCN(C)CC4)cc3)nc2n1-c1cccc(C(C)(C)O)n1 [AZD1775] + C[C@@H]1COCCN1C2=NC(=NC(=C2)C3(CC3)[S@](=N)(=O)C)C4=C5C=CNC5=NC=C4 [AZD6738] (first compound max 1 µM, partner max 10 µM) | -0.0217 | 0.0684 | 0.0331 | 0.033 | 0.0135 | 0.0174 | -0.0523 | 0.0431 | 0.0101 | 0.0597 | 0.0433 | 0.0178 | 0.0412 | 0.0975 | 0.0242 | 0.0105 | -0.0203 | 0.086 | 0.0869
C=CCn1c(=O)c2cnc(Nc3ccc(N4CCN(C)CC4)cc3)nc2n1-c1cccc(C(C)(C)O)n1 [AZD1775] + O=C(c1cc(Cc2n[nH]c(=O)c3ccccc23)ccc1F)N1CCN(C(=O)C2CC2)CC1 [Olaparib] (first compound max 1 µM, partner max 10 µM) | -0.0334 | 0.0627 | -0.0415 | 0.0622 | -0.0297 | 0.0597 | -0.0169 | -0.0626 | 0.0004 | 0.0046 | -0.0678 | 0.0059 | -0.0421 | -0.0554 | -0.0145 | -0.0261 | -0.0095 | -0.037 | 0.0253
CCN(CCO)CCCOc1ccc2c(Nc3cc(CC(=O)Nc4cccc(F)c4)[nH]n3)ncnc2c1 [AZD2811] + C=CCn1c(=O)c2cnc(Nc3ccc(N4CCN(C)CC4)cc3)nc2n1-c1cccc(C(C)(C)O)n1 [AZD1775] (first compound max 1 µM, partner max 1 µM) | -0.0338 | -0.0091 | 0.0162 | -0.0073 | -0.0367 | -0.0146 | -0.0562 | 0.0744 | -0.0255 | -0.0954 | 0.0526 | -0.0218 | 0.0277 | -0.0445 | 0.0322 | -0.0328 | -0.0319 | 0.0214 | 0.0089
CCN(CCO)CCCOc1ccc2c(Nc3cc(CC(=O)Nc4cccc(F)c4)[nH]n3)ncnc2c1 [AZD2811] + C[C@@H]1COCCN1C2=NC(=NC(=C2)C3(CC3)[S@](=N)(=O)C)C4=C5C=CNC5=NC=C4 [AZD6738] (first compound max 1 µM, 7x7, partner max 10 µM) | -0.0298 | -0.0089 | 0.0285 | -0.0263 | -0.0175 | -0.0533 | -0.0345 | -0.0335 | -0.0021 | -0.0513 | -0.0494 | -0.0554 | -0.0251 | -0.0776 | -0.0331 | -0.0577 | -0.0312 | -0.0151 | -0.0184
CCN(CCO)CCCOc1ccc2c(Nc3cc(CC(=O)Nc4cccc(F)c4)[nH]n3)ncnc2c1 [AZD2811] + O=C(c1cc(Cc2n[nH]c(=O)c3ccccc23)ccc1F)N1CCN(C(=O)C2CC2)CC1 [Olaparib] (first compound max 1 µM, 7x7, partner max 10 µM) | -0.0358 | -0.0464 | 0.0534 | 0.0242 | -0.0006 | -0.0064 | -0.0343 | -0.0772 | 0.0395 | -0.0319 | 0.0216 | -0.0296 | 0.0058 | -0.082 | -0.0153 | -0.0029 | -0.0087 | -0.0299 | 0.0207
C[C@@H]1COCCN1c1cc(C2([S@](C)(=N)=O)CC2)nc(-c2ccnc3[nH]ccc23)n1 [AZD6738] + O=C(c1cc(Cc2n[nH]c(=O)c3ccccc23)ccc1F)N1CCN(C(=O)C2CC2)CC1 [Olaparib] (first compound max 10 µM, 7x7, partner max 10 µM) | -0.0471 | -0.014 | -0.0454 | 0.0017 | -0.0172 | 0.024 | 0.0166 | -0.0726 | -0.0064 | -0.001 | -0.0646 | 0.0543 | 0.0074 | -0.0275 | 0.0033 | 0.0178 | 0.0021 | 0.0598 | 0.0762
Cc1cc2ncnn2cc1Nc1ncc2c(n1)n(C1CCOCC1)c(=O)n2C [AZD7648] + C=CCn1c(=O)c2cnc(Nc3ccc(N4CCN(C)CC4)cc3)nc2n1-c1cccc(C(C)(C)O)n1 [AZD1775] (first compound max 10 µM, partner max 1 µM) | -0.117 | -0.0216 | 0.0015 | -0.024 | -0.07 | -0.0375 | 0.0217 | 0.055 | 0.0163 | 0.0495 | 0.0017 | -0.0014 | -0.0357 | -0.0457 | -0.0013 | -0.0274 | -0.0266 | 0.0161 | 0.0302
Cc1cc2ncnn2cc1Nc1ncc2c(n1)n(C1CCOCC1)c(=O)n2C [AZD7648] + CCN(CCO)CCCOc1ccc2c(Nc3cc(CC(=O)Nc4cccc(F)c4)[nH]n3)ncnc2c1 [AZD2811] (first compound max 10 µM, 7x7, partner max 1 µM) | -0.0705 | -0.0211 | 0.115 | 0.0122 | 0.0257 | -0.0225 | 0.0205 | -0.0301 | 0.0058 | 0.0124 | 0.0127 | -0.011 | 0.0257 | -0.0639 | 0.005 | 0.0321 | 0.0006 | 0.0208 | 0.0029
Cc1cc2ncnn2cc1Nc1ncc2c(n1)n(C1CCOCC1)c(=O)n2C [AZD7648] + CN(C)CCCOc1ccc(-c2ccc3ncc4c(c3c2)n(C2CCOCC2)c(=O)n4C)cn1 [AZD0156] (first compound max 10 µM, 7x7, partner max 1 µM) | -0.0687 | -0.0113 | 0.0542 | -0.0126 | -0.0515 | 0.0078 | -0.0098 | 0.0438 | 0.0841 | -0.0127 | -0.0026 | 0.0803 | -0.0325 | 0.0176 | -0.0119 | 0.0149 | -0.0359 | 0.0013 | 0.0126
Cc1cc2ncnn2cc1Nc1ncc2c(n1)n(C1CCOCC1)c(=O)n2C [AZD7648] + C[C@@H]1COCCN1C2=NC(=NC(=C2)C3(CC3)[S@](=N)(=O)C)C4=C5C=CNC5=NC=C4 [AZD6738] (first compound max 10 µM, 7x7, partner max 10 µM) | -0.116 | 0.0519 | 0.0341 | 0.0622 | 0.0697 | 0.0148 | 0.0145 | 0.041 | -0.0368 | -0.0081 | -0.0096 | 0.0071 | -0.0127 | -0.0079 | 0.0639 | -0.0047 | 0.0227 | -0.0084 | 0.0394
Cc1cc2ncnn2cc1Nc1ncc2c(n1)n(C1CCOCC1)c(=O)n2C [AZD7648] + O=C(c1cc(Cc2n[nH]c(=O)c3ccccc23)ccc1F)N1CCN(C(=O)C2CC2)CC1 [Olaparib] (first compound max 10 µM, 7x7, partner max 10 µM) | -0.0706 | -0.0071 | -0.0367 | -0.0077 | -0.0419 | 0.0433 | -0.0391 | -0.0106 | -0.019 | -0.0411 | 0.0107 | -0.0626 | -0.0131 | -0.0151 | -0.0484 | -0.033 | -0.0538 | -0.0351 | -0.0406
COc1cccc2c1C(=O)c1c(O)c3c(c(O)c1C2=O)C[C@@](O)(C(=O)CO)C[C@@H]3O[C@H]1C[C@H](N)[C@H](O)[C@H](C)O1 [Doxorubicin] + Cc1cc2ncnn2cc1Nc1ncc2c(n1)n(C1CCOCC1)c(=O)n2C [AZD7648] (first compound max 1 µM, 7x7, partner max 10 µM) | 0.0279 | 0.124 | 0.086 | 0.0503 | -0.0541 | 0.0651 | -0.0234 | 0.162 | 0.143 | -0.0179 | 0.076 | 0.125 | 0.0261 | 0.108 | 0.051 | 0.067 | -0.0102 | 0.0386 | 0.0587
COc1cccc(OCCCN)c1-c1cc(Nc2cnc(C#N)cn2)n[nH]1 [Prexasertib] + C=CCn1c(=O)c2cnc(Nc3ccc(N4CCN(C)CC4)cc3)nc2n1-c1cccc(C(C)(C)O)n1 [AZD1775] (first compound max 1 µM, partner max 1 µM) | -0.0448 | 0.0809 | 0.088 | 0.0197 | 0.0995 | -0.014 | 0.0354 | 0.0949 | 0.0716 | 0.0901 | 0.0497 | 0.0633 | 0.0825 | 0.0981 | 0.0236 | 0.0638 | -0.0174 | 0.042 | 0.132
COc1cccc(OCCCN)c1-c1cc(Nc2cnc(C#N)cn2)n[nH]1 [Prexasertib] + CN(C)CCCOc1ccc(-c2ccc3ncc4c(c3c2)n(C2CCOCC2)c(=O)n4C)cn1 [AZD0156] (first compound max 1 µM, 7x7, partner max 1 µM) | -0.0287 | -0.0124 | -0.0021 | -0.0133 | -0.0081 | -0.0266 | -0.0035 | 0.026 | 0.05 | -0.0286 | -0.0217 | -0.011 | -0.0028 | -0.0026 | -0.0503 | -0.0104 | -0.027 | 0.0304 | 0.0022
COc1cccc(OCCCN)c1-c1cc(Nc2cnc(C#N)cn2)n[nH]1 [Prexasertib] + C[C@@H]1COCCN1C2=NC(=NC(=C2)C3(CC3)[S@](=N)(=O)C)C4=C5C=CNC5=NC=C4 [AZD6738] (first compound max 1 µM, 7x7, partner max 10 µM) | -0.0845 | -0.035 | -0.0302 | 0.0094 | 0.0669 | -0.0164 | 0.0242 | -0.0164 | 0.0291 | 0.0579 | -0.0435 | -0.0371 | -0.106 | -0.0289 | -0.0794 | -0.0129 | -0.0421 | 0.0188 | -0.0702
